# Measured values as given in ChEMBL document CHEMBL4196200 (J Med Chem, 2018).
# pEC50, pIC50, pKi: −log10 of the molar value. Numbered stars: 1 amine (or outer) side, 2 acyl side, 3 side chain; on linkers, the order of the positions; unused ones are H or OH. Bridge positions count the residues as written; N and C are the ends. Peptide text beside a SMILES is read from it. X1 = O=C(CCC[*:2])[*:1]
# Experiments:
# Vasopressin V1a receptor [1] = target: T1, Vasopressin V1a receptor (Homo sapiens, UniProt P37288); experiment: Displacement of DY647 from SNAP-tagged V1A receptor (unknown origin) expressed in HEK293 cells by TR-FRET assay; type: cell-based
# Target sequence in this assay (P37288 whole entry): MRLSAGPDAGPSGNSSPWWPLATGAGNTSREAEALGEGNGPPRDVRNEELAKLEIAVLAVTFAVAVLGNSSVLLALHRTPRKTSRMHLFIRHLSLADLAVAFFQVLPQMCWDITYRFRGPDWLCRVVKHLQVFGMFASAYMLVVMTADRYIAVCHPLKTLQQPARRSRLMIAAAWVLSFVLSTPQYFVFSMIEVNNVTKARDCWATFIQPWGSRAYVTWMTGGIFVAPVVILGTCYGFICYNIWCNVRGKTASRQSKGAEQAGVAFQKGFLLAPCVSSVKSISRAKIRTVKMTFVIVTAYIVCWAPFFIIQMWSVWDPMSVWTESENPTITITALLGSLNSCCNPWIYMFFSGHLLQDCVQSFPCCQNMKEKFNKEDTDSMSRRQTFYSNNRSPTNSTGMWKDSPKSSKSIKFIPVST
# Vasopressin V1a receptor [2] = target: T1, Vasopressin V1a receptor; experiment: Agonist activity at human V1A receptor expressed in HEK cells assessed as increase in intracellular calcium flux at 1 uM incubated for 45 mins by Indo1-AM dye based fluorescence assay relative to AVP; type: functional, cell-based
# Target sequence in this assay (P37288 whole entry, looked up): as the sequence (P37288 whole entry) above
# Vasopressin V1a receptor [3] = target: T1, Vasopressin V1a receptor; experiment: Antagonist activity at human V1A receptor expressed in HEK cells assessed as inhibition of AVP-induced intracellular calcium flux incubated for 45 mins by Indo1-AM dye based fluorescence assay relative to AVP; type: functional, cell-based
# Target sequence in this assay (P37288 whole entry): as above
# Vasopressin V2 receptor [4] = target: T2, Vasopressin V2 receptor (Homo sapiens, UniProt P30518); experiment: Displacement of DY647 from SNAP-tagged V2 receptor (unknown origin) expressed in HEK293 cells by TR-FRET assay; type: cell-based
# T2 sequence (P30518 whole entry): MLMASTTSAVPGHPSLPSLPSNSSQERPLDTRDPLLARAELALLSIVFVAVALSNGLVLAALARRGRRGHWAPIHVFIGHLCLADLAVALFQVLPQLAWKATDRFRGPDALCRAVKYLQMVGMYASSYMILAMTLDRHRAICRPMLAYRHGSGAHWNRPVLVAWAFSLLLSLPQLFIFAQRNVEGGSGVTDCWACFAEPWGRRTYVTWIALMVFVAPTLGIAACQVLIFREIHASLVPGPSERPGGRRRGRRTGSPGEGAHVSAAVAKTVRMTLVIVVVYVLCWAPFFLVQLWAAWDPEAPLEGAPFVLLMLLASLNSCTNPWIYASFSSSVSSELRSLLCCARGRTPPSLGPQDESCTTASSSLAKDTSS
# Oxytocin receptor [5] = target: T3, Oxytocin receptor (Homo sapiens, UniProt P30559); experiment: Displacement of DY647 from SNAP-tagged OTR receptor (unknown origin) expressed in HEK293 cells by TR-FRET assay; type: cell-based
# T3 sequence (P30559 whole entry): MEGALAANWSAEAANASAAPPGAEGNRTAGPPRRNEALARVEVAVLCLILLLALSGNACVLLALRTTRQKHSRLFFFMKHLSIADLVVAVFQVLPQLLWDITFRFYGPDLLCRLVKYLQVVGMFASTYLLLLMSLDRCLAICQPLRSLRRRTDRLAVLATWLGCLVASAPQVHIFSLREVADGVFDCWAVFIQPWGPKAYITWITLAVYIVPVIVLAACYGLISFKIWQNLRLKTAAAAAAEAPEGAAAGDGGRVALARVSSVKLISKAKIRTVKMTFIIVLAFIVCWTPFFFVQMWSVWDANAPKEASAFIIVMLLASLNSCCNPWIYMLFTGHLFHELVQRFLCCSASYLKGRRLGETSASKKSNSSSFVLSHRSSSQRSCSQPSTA
# [6] = target: T4, Oxytocin receptor (Homo sapiens) (UniProt P30559); experiment: Agonist activity at human OTR expressed in HEK cells assessed as increase in intracellular calcium flux at 1 uM incubated for 45 mins by Indo1-AM dye based fluorescence assay relative to OT; type: functional, cell-based
# T4 sequence (whole entry): T3 sequence (P30559 whole entry)
# Oxytocin receptor [7] = target: T3, Oxytocin receptor; experiment: Antagonist activity at human OTR expressed in HEK cells assessed as inhibition of OT-induced intracellular calcium flux incubated for 45 mins by Indo1-AM dye based fluorescence assay; type: functional, cell-based
# Oxytocin receptor [8] = target: T3, Oxytocin receptor; experiment: Agonist activity at human OTR expressed in HEK cells assessed as increase in intracellular calcium flux incubated for 45 mins by Indo1-AM dye based fluorescence assay; type: functional, cell-based
# [9] = target: T4, Oxytocin receptor (Homo sapiens); experiment: Agonist activity at human OTR expressed in HEK cells assessed as increase in intracellular calcium flux incubated for 45 mins by Indo1-AM dye based fluorescence assay relative to OT; type: functional, cell-based
# [10] = target: T4, Oxytocin receptor (Homo sapiens); experiment: Antagonist activity at human OTR expressed in HEK cells assessed as inhibition of OT-induced intracellular calcium flux at 1 uM incubated for 45 mins by Indo1-AM dye based fluorescence assay relative to OT; type: functional, cell-based
# [11] = target: T4, Oxytocin receptor (Homo sapiens); experiment: Agonist activity at human OTR receptor expressed in CHO cells co-expressing NFAT-luciferase incubated for 5 hrs by luciferase reporter gene assay relative to OT; type: functional, cell-based
# [12] = target: T4, Oxytocin receptor (Homo sapiens); experiment: Agonist activity at human OTR receptor expressed in HEK293FT cells assessed as stimulation of calcium release by Aequorin based assay relative to OT; type: functional, cell-based
# [13] = target: T5, Oxytocin receptor (Mus musculus) (UniProt P97926); experiment: Agonist activity at mouse OTR receptor expressed in HEK293FT cells assessed as stimulation of calcium release by Aequorin based assay relative to OT; type: functional, cell-based
# T5 sequence (whole entry): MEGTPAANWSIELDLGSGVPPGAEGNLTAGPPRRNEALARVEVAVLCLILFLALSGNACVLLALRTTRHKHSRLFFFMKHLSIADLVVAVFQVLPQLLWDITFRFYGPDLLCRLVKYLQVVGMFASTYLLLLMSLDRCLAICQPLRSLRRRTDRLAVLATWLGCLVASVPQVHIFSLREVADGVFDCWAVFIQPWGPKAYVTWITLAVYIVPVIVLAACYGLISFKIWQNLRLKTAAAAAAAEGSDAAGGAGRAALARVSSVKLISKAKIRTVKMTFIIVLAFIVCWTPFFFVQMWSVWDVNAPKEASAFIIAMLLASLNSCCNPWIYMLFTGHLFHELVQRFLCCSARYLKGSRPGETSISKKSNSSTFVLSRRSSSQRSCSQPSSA
# [14] = target: T4, Oxytocin receptor (Homo sapiens); experiment: Agonist activity at human OTR receptor expressed in HEK293FT cells incubated for 30 mins by beta-arrestin recruitment assay relative to OT; type: functional, cell-based
# Vasopressin V1a receptor [15] = target: T1, Vasopressin V1a receptor
# Target sequence in this assay (P37288 whole entry): as the sequence (P37288 whole entry) above
# Description: Agonist activity at human V1a receptor expressed in HEK293FT cells incubated for 30 mins by beta-arrestin recruitment assay
# Vasopressin V1a receptor [16] = target: T1, Vasopressin V1a receptor; experiment: Antagonist activity at V1A receptor (unknown origin); type: functional
# Target sequence in this assay (P37288 whole entry): as above
# Vasopressin V2 receptor [17] = target: T2, Vasopressin V2 receptor; experiment: Antagonist activity at V2 receptor (unknown origin); type: functional
# Oxytocin receptor [18] = target: T3, Oxytocin receptor; experiment: Antagonist activity at OXR receptor (unknown origin); type: functional
# [19] = target: T4, Oxytocin receptor (Homo sapiens); experiment: Agonist activity at human OTR receptor expressed in CHO cells assessed as increase in myo-inositol 1-phosphate accumulation at 1 uM by IP-One assay relative to OT; type: functional, cell-based
# Vasopressin V1a receptor [20] = target: T1, Vasopressin V1a receptor; experiment: Agonist activity at human V1A receptor expressed in CHO cells assessed as increase in myo-inositol 1-phosphate accumulation at 1 uM by IP-One assay relative to AVP; type: functional, cell-based
# Target sequence in this assay (P37288 whole entry, looked up): as the sequence (P37288 whole entry) above
# Vasopressin V1b receptor [21] = target: T6, Vasopressin V1b receptor (Homo sapiens, UniProt P47901); experiment: Binding affinity to V1B receptor (unknown origin)
# T6 sequence (P47901 whole entry): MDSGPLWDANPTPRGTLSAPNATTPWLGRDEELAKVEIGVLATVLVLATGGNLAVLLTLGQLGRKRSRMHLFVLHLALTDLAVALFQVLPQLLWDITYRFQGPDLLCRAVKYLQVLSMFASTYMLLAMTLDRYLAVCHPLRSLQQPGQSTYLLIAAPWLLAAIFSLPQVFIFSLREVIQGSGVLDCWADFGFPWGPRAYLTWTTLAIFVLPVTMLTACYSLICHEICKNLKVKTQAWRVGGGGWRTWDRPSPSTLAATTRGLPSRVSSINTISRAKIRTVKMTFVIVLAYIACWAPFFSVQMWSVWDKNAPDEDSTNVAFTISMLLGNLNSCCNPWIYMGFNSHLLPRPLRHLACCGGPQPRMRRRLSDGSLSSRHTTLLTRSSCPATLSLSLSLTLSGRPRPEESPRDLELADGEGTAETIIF
# Vasopressin V2 receptor [22] = target: T2, Vasopressin V2 receptor; experiment: Binding affinity to V2 receptor (unknown origin)
# [23] = Thermodynamic solubility in pH 7.4 buffer; type: physicochemical; settings: read-out: Therm_solubility
# Oxytocin receptor [24] = target: T7, Oxytocin receptor (Mus musculus, UniProt P97926); experiment: Agonist activity at mouse OTR receptor expressed in HEK293FT cells assessed as stimulation of calcium release by Aequorin based assay; type: functional, cell-based
# T7 sequence (P97926 whole entry): T5 sequence (whole entry)
# Vasopressin V2 receptor [25] = target: T2, Vasopressin V2 receptor; experiment: Agonist activity at human V2 receptor expressed in HEK293FT cells assessed as stimulation of calcium release by Aequorin based assay; type: functional, cell-based
# [26] = target: T4, Oxytocin receptor (Homo sapiens); experiment: Agonist activity at recombinant human OTR expressed in CHO-DUKX-A2 cells assessed as stimulation of intracellular calcium concentration by calcium 3 dye based FLIPR assay relative to OT; type: functional, cell-based
# Vasopressin V1a receptor [27] = target: T1, Vasopressin V1a receptor; experiment: Displacement of [3H]-AVP from human V1A receptor expressed in CHO cell membranes by radioligand binding assay
# Target sequence in this assay (P37288 whole entry): as the sequence (P37288 whole entry) above
# Vasopressin V2 receptor [28] = target: T2, Vasopressin V2 receptor; experiment: Displacement of [3H]-AVP from human V2 receptor expressed in CHO cell membranes by radioligand binding assay
# Oxytocin receptor [29] = target: T3, Oxytocin receptor; experiment: Displacement of [3H]-AVP from human OXR receptor expressed in CHO cell membranes by radioligand binding assay
# Vasopressin V2 receptor [30] = target: T2, Vasopressin V2 receptor; experiment: Agonist activity at human V2 receptor expressed in CHO cells assessed as increase in cAMP accumulation by cAMP dynamic 2 assay; type: functional, cell-based
# Vasopressin V1a receptor [31] = target: T1, Vasopressin V1a receptor; experiment: Antagonist activity at human V1A receptor expressed in CHO cells assessed as inhibition of AVP-induced myo-inositol 1-phosphate accumulation by IP-One assay; type: functional, cell-based
# Target sequence in this assay (P37288 whole entry, looked up): as the sequence (P37288 whole entry) above
# [32] = target: T4, Oxytocin receptor (Homo sapiens); experiment: Antagonist activity at human OTR receptor expressed in CHO cells assessed as inhibition of OT-induced myo-inositol 1-phosphate accumulation by IP-One assay; type: functional, cell-based
# Homo sapiens [33] = organism: Homo sapiens; experiment: Selectivity for human V1a receptor over human V2 receptor
# Homo sapiens [34] = organism: Homo sapiens; experiment: Selectivity for human OTR receptor over human V2 receptor
# Vasopressin V1a receptor [35] = target: T1, Vasopressin V1a receptor; experiment: Displacement of [3H]-AVP from human V1A receptor expressed in human HeLa cell membranes incubated for 2 hrs by scintillation counting method
# Target sequence in this assay (P37288 whole entry): as the sequence (P37288 whole entry) above
# Vasopressin V1b receptor [36] = target: T6, Vasopressin V1b receptor; experiment: Displacement of [3H]-AVP from human V1B receptor expressed in human HeLa cell membranes incubated for 2 hrs by scintillation counting method
# Vasopressin V2 receptor [37] = target: T2, Vasopressin V2 receptor; experiment: Displacement of [3H]-AVP from human V2 receptor expressed in human HeLa cell membranes incubated for 2 hrs by scintillation counting method
# Vasopressin V2 receptor [38] = target: T2, Vasopressin V2 receptor; experiment: Agonist activity at human V2 receptor expressed in human HeLa cells assessed as stimulation of cAMP accumulation by radioimmunoassay; type: functional, cell-based
# Vasopressin V1a receptor [39] = target: T1, Vasopressin V1a receptor; remark: listed apart in the source
# Description: Agonist activity at human V1a receptor expressed in HEK293FT cells assessed as stimulation of calcium release by Aequorin based assay
# Vasopressin V1b receptor [40] = target: T6, Vasopressin V1b receptor
# Description: Agonist activity at human V1b receptor expressed in HEK293FT cells incubated for 30 mins by beta-arrestin recruitment assay
structure (smiles),measurement,setting,value
Cc1cc(C(=O)N2Cc3cnn(C)c3Nc3ccccc32)ccc1CNC(=O)NCC(=S)N(C)C,pKi,Vasopressin V1a receptor [1],7.09
same,Emax,Vasopressin V1a receptor [2],5 to 10%
same,pIC50,Vasopressin V1a receptor [3],8.05
same,pKi,Vasopressin V2 receptor [4],< 6.00
same,pKi,Oxytocin receptor [5],7.21
same,Emax,[6],5 to 10%
same,pIC50,Oxytocin receptor [7],6.22
Cc1cc(C(=O)N2Cc3cnn(C)c3Nc3ccccc32)ccc1CNC(=O)N1CCC[C@H]1C(=S)N1CCCN(C)CC1,pKi,Vasopressin V1a receptor [1],6.71
same,Emax,Vasopressin V1a receptor [2],5 to 10%
same,pIC50,Vasopressin V1a receptor [3],8.10
same,pKi,Oxytocin receptor [5],6.85
same,pEC50,Oxytocin receptor [8],7.55
same,Emax,[9],84%
same,inhibition,[10],5 to 10%
same,Emax,[11],100%
CC[C@H](C)[C@@H]1NC(=O)[C@H](Cc2ccc(O)cc2)NC(=O)[C@@H](N)CSSC[C@@H](C(=O)N2CCC[C@H]2C(=O)N[C@@H](CC(C)C)C(=O)NCC(N)=O)NC(=O)[C@H](CC(N)=O)NC(=O)[C@H](CCC(N)=O)NC1=O [OXYTOCIN],Emax,[12],100%
same,Emax,[13],100%
same,Emax,[14],100%
same,IC50,Vasopressin V1a receptor [15],Not Active
O=C(Nc1ccc(C(=O)N2CCCCc3ccccc32)cc1)c1ccccc1-c1ccccc1,pIC50,Vasopressin V1a receptor [16],8.56
same,pIC50,Vasopressin V2 receptor [17],9.24
same,pIC50,Oxytocin receptor [18],6.96
same,Emax,[19],< 10%
same,Emax,Vasopressin V1a receptor [20],< 10%
Cc1cc(C(=O)N2Cc3cnn(C)c3Nc3ccccc32)ccc1CNC(=O)N1CCN(Cc2cc(O)cc(O)c2)CC1,pKi,Vasopressin V1b receptor [21],5.24 to 6.00
same,pKi,Vasopressin V2 receptor [22],6.00 to 7.23
same,pKi,Vasopressin V2 receptor [4],< 6.00
same,Emax,[9],40%
same,inhibition,[10],5 to 10%
same,solubility thermodynamic,[23],5 mM
same,Emax,[12],70%
same,pEC50,Oxytocin receptor [24],7.11
same,Emax,[13],86%
same,pEC50,Vasopressin V2 receptor [25],5.64
same,Emax,[14],84%
same,Emax,[26],87.1%
Cc1ccn(-c2ccc(C(=O)N3CCCCc4ccccc43)cc2)n1,pKi,Vasopressin V1a receptor [27],7.47
same,pKi,Vasopressin V2 receptor [28],6.55
same,pKi,Oxytocin receptor [29],7.08
same,Kact,Vasopressin V2 receptor [30],13 nM
same,Kinact,Vasopressin V1a receptor [31],48 nM
same,Kinact,[32],112 nM
same,Emax,[19],< 10%
same,Emax,Vasopressin V1a receptor [20],< 10%
same,Selectivity ratio,Homo sapiens [33],0.12
same,Selectivity ratio,Homo sapiens [34],0.3
CC(C)NC(=O)C[C@H]1CCCN(C(=O)c2ccc(N3CCCC3)cc2Cl)c2ccccc21,pKi,Vasopressin V1a receptor [35],6.09
same,pIC50,Vasopressin V1b receptor [36],< 4.00
same,pKi,Vasopressin V2 receptor [37],7.04
same,pEC50,Vasopressin V2 receptor [38],6.72
CC[C@H](C)[C@@H]1NC(=O)[C@H](Cc2ccc(OC)cc2)NC(=O)CCCSC[C@@H](C(=O)N2CCC[C@H]2C(=O)N[C@@H](CC(C)C)C(=O)NCC(N)=O)NC(=O)[C@H](CC(N)=O)NC(=O)[C@H](CCC(N)=O)NC1=O [CARBETOCIN] (Y(Me)IQNCPLG-NH2; linker N-5 via X1),pEC50,Oxytocin receptor [24],7.21
same,Emax,[13],85%
same,EC50,Vasopressin V1a receptor [39],Not Active
same,IC50,Vasopressin V1a receptor [15],Not Active
same,EC50,Vasopressin V1b receptor [40],Not Active
